Data: article PMC8453901, “GLPG1205, a GPR84 Modulator: Safety, Pharmacokinetics, and Pharmacodynamics in Healthy Subjects” (Clinical Pharmacology in Drug Development, 2021)
Entries after “also recorded” stand apart in the source; their conditions may differ. Where two headings read alike, the source gives them in different places.

What was measured:
[1] = Study 2 part 1: effect of aging on pharmacokinetics, 50 mg once daily for 14 days; assay type: in vivo, human; details: for Tmax / Cmax / AUC(0-t) / concentration at 24 h / AUC(0-inf) / half-life: male, human, plasma, oral, 50 mg; for AUC(0-t): read-out: AUC0–24h; for concentration at 24 h: read-out: C24h; for half-life: read-out: t1/2,λz (converted)
Procedure: During study 2, GLPG1205 50 mg or matching placebo was administered as capsules in the morning 30 minutes after the start of a standard breakfast. Subjects were kept in‐house from the evening of day –1 to ≈26 hours after the first dose (day 2), and from the evening of day 13 until day 15. Administration of the study drug was performed daily at the clinical pharmacology unit. Subjects returned for a follow‐up visit at day 35.
In part 1, 24 healthy male subjects were matched into 3 cohorts based on body weight: Cohort A comprised 8 subjects aged 65–74 years, inclusive; cohort B comprised 8 subjects aged ≥75 years (1:1 weight matched with cohort A subjects [± 5 kg]); and cohort C comprised 8 subjects aged 18 to 50 years, inclusive (1:1 weight matched with cohort A subjects [± 5 kg]). All cohorts received GLPG1205 50 mg once daily or matching placebo, in a 3:1 ratio, for 14 days. In the open‐label second part of study 2, 8 subjects (cohort D) aged 65 to 74 years, inclusive, were included to characterize the PK profile after a loading dose of GLPG1205 250 mg on day 1 followed by multiple doses of GLPG1205 50 mg once daily from day 2 to day 14.
In the SAD part of study 1, blood samples (2 mL) for PK assessments were obtained before dosing and at multiple time points on the day of study drug administration (before dosing and 0.5, 1, 2, 4, 6, 8, and 12 hours after dosing) and at 24, 48, and 72 hours after dosing. The predose sample for the next dose level was also used in PK analysis (168 hours after dosing). […] In the MAD part of study 1, blood samples (2 mL) were obtained on days 1, 2, 4, 5, 6, 8, 10, 12, 14, 15, 16, 17, and 18 and at follow‐up (approximately 7 to 10 days after the last dose). These PK blood samples were taken after dosing (1, 2, 4, 6, 8, 12, and 24 hours) on day 1; before dosing on days 4, 6, 8, and 10; and after dosing (1, 2, 4, 6, 8, 12, 24, 72, and 96 hours) on day 14. The following additional PK blood samples were also taken: cohort C, before dosing on day 5; and cohorts D and E, before dosing on day 12. Urine samples were obtained from fractions collected over 6‐ or 12‐hour periods after dosing on days –1, 1, 2, 13, 14, and 15; samples obtained on days –1 and 13 were for cytochrome P450 (CYP) induction analysis only. In study 2, blood samples (2 mL) were obtained on days 1, 2, 5, 7, 10, 14, 15, 17, and 20 and at follow‐up (approximately 21 days after end of study medication administration). Blood samples were taken before dosing and at 1, 2, 4, 6, 8, 12, and 24 hours after drug administration on days 1 and 14 and before dosing on other sampling days.
GLPG1205 plasma concentrations were determined using a validated liquid chromatography with tandem mass spectrometry method. After a protein precipitation with methanol, a chromatographic separation was performed on a Kinetex C18 column (50×3.0 mm, 2.6 μm; Phenomenex, Torrance, California) set at 40°C by using a Nexera high‐performance liquid chromatography (HPLC) system (Shimadzu, Kyoto, Japan) or an Infinity HPLC system (Agilent Technologies, Diegem, Belgium) in isocratic elution mode. A QTRAP6500, QTRAP4000, or API4000 mass spectrometer (AB Sciex, Nieuwerkerk aan den Ijssel, The Netherlands) equipped with a TurboIonSpray probe operated in the multiple reaction monitoring in positive mode was used for quantification. The calibration curves in plasma were linear over the range of 1 to 1000 ng/mL with 1/x^2 as weighting factor. The limit of quantification of the assay in the plasma samples was set at 1 ng/mL.
PK calculations were performed using Phoenix WinNonlin 6.2 (Pharsight Corporation, Palo Alto, California). […] AUC0‐inf was calculated from the area under the plasma concentration‐time curve from time 0 until the time corresponding with the last observed quantifiable concentration + Ct/λz, where Ct was the last observed quantifiable concentration and λz the first‐order terminal rate constant. […]

[2] = set-up: method as in data on file at Galapagos, 17; details: separate study; ref data on file at Galapagos, 17; cited from earlier work
[3] = 50 mg once daily, cohort A 65-74 y, day 14, mean (CV%), N = 4
[4] = 50 mg once daily, cohort A 65-74 y, day 1, mean (CV%)
[5] = 50 mg once daily, cohort A 65-74 y, day 14, mean (CV%)
[6] = 50 mg once daily, cohort B ≥75 y, day 1, mean (CV%)
[7] = 50 mg once daily, cohort B ≥75 y, day 14, mean (CV%)
[8] = 50 mg once daily, cohort C 18-50 y, day 1, mean (CV%)
[9] = 50 mg once daily, cohort C 18-50 y, day 14, mean (CV%)

SMILES: O=c1nc(OC[C@@H]2COCCO2)cc2n1CCc1cc(C#CC3CC3)ccc1-2 [GLPG1205, 9‐cyclopropylethynyl‐2‐((S)‐1‐[1,4]dioxan‐2‐ylmethoxy)‐6,7‐dihydropyrimido[6,1‐a]isoquinolin‐4‐one]
- effect of age on GLPG1205 exposure ([1]; 50 mg once daily for 14 days, 3 age groups): Age did not affect GLPG1205 exposure; also recorded: age has no effect on GLPG1205 exposure; also recorded: Age had no effect on the PK
- Rac (accumulation ratio) ([1]; 50 mg once daily, cohort A 65-74 y, AUC0-24h day 14/day 1 (Table 5A)): 6.16 (0.74)
- AUC0–inf [1, 3]: 338 (26.0) ^N = 4 μg • h/mL
- Rac (accumulation ratio) ([1]; 50 mg once daily, cohort B ≥75 y, AUC0-24h day 14/day 1): 5.77 (1.34)
- Rac (accumulation ratio) ([1]; 50 mg once daily, cohort C 18-50 y, AUC0-24h day 14/day 1): 5.02 (1.66)
- Tmax ([1]; 50 mg once daily for 14 days, all 3 age groups): 2 to 3 h
- Cmax [1, 4]: 557 ng/mL
- AUC(0-t) [1, 4]: 8920 ng·h/mL
- concentration at 24 h [1, 4]: 334 ng/mL
- Cmax [1, 5]: 2750 ng/mL
- AUC(0-inf) [1, 3]: 338000 ng·h/mL
- AUC(0-t) [1, 5]: 54200 ng·h/mL
- concentration at 24 h [1, 5]: 2440 ng/mL
- half-life [1, 5]: 71.9 h
- Cmax [1, 6]: 440 ng/mL
- AUC(0-t) [1, 6]: 6900 ng·h/mL
- concentration at 24 h [1, 6]: 290 ng/mL
- Cmax [1, 7]: 1960 ng/mL
- AUC(0-inf) ([1]; 50 mg once daily, cohort B ≥75 y, day 14, mean (CV%), N = 4): 236000 ng·h/mL
- AUC(0-t) [1, 7]: 39300 ng·h/mL
- concentration at 24 h [1, 7]: 1820 ng/mL
- half-life [1, 7]: 64.5 h
- Tmax ([1]; 50 mg once daily, cohort B ≥75 y, day 14, median (minimum-maximum)): 3 h
- Cmax [1, 8]: 476 ng/mL
- AUC(0-t) [1, 8]: 7740 ng·h/mL
- concentration at 24 h [1, 8]: 301 ng/mL
- Cmax [1, 9]: 1950 ng/mL
- AUC(0-inf) ([1]; 50 mg once daily, cohort C 18-50 y, day 14, mean (CV%), N = 5): 194000 ng·h/mL
- AUC(0-t) [1, 9]: 37700 ng·h/mL
- concentration at 24 h [1, 9]: 1590 ng/mL
- half-life [1, 9]: 56 h
- food effect on GLPG1205 exposure [2]: no food effect
